Converted amounts (≈) assume the structure as drawn. Read-outs that look alike come from different tables or passages of the source.
Experiments:
[1] = system: Staphylococcus aureus Strain 1 (BSAC04(1)) (Clinical isolate from Glasgow Royal Infirmary); assay: MIC, Staphylococcus aureus Strain 1; type: cell-based; conditions: for MIC: read-out: Minimum inhibitory concentrations (MICs), S aureus 1
Experimental: The effects of compounds of the invention in relation to inhibiting the growth of various microorganisms was determined using methods known to those skilled in the art, for example in vitro methods as described in J. Med. Chem. 47, 2133-2156 (2004) and in vivo methods as described in J. Med. Microbiol. 46, 208-213 (1997), the disclosures of which documents are hereby incorporated by reference.
(§1) In particular, minimum inhibitory concentrations (MICs) against microorganisms (e.g. S. Aureus, Streptococcus faecalis, Aspergillus niger, Candida albicans or Mycobacterium fortuitum) for compounds of the invention may be measured using procedures such as those described in A. J. Drummond and R. D. Waigh “The development of microbiological methods for phytochemical screening” Recent Res. Devel. Phytochem. 4, 143-152 (2000), the disclosures of which document are hereby incorporated by reference.
(§2) Sample dilutions were typically prepared by dissolving the test sample (2 mg) in sterile water (10 mL) to provide a working concentration of 200 μg/ml. The test wells on each 96 well microtitre plate were initially inoculated with culture medium (100 μL) using Mueller-Hinton Broth for antibacterial assays and Sabouraud Broth for antifungal assays. A solution of each test sample (100 μL) was added to one row of each plate and a series of doubling dilutions made for successive rows. Incubation was at 37° C. for antibacterial assay and 25° C. for antifungal assay. […] From the observed pattern of colour, the MIC was determined. All tests included sterility and growth controls.

[2] = system: Staphylococcus aureus Strain 2 (NCTC 6571); assay: MIC, Staphylococcus aureus Strain 2; type: cell-based; conditions: for MIC: read-out: Minimum inhibitory concentrations (MICs), S. aureus 2
Experimental: (§3) The effects of compounds of the invention in relation to inhibiting the growth of various microorganisms was determined using methods known to those skilled in the art, for example in vitro methods as described in J. Med. Chem. 47, 2133-2156 (2004) and in vivo methods as described in J. Med. Microbiol. 46, 208-213 (1997), the disclosures of which documents are hereby incorporated by reference. In particular, minimum inhibitory concentrations (MICs) against microorganisms (e.g. S. Aureus, Streptococcus faecalis, Aspergillus niger, Candida albicans or Mycobacterium fortuitum) for compounds of the invention may be measured using procedures such as those described in A. J. Drummond and […] development of microbiological methods for phytochemical screening” Recent Res. Devel. […] The test wells on each 96 well microtitre plate were initially inoculated with culture medium (100 μL) using Mueller-Hinton Broth for antibacterial assays and Sabouraud Broth for antifungal assays. A solution of each test sample (100 μL) was added to one row of each plate and a series of doubling dilutions made for successive rows. Incubation was at 37° C. for antibacterial assay and 25° C. for antifungal assay. […] From the observed pattern of colour, the MIC was determined. All tests included sterility and growth controls.

[3] = system: Streptococcus faecalis (NCTC 775); assay: MIC, Streptococcus faecalis; type: cell-based; conditions: for MIC: read-out: Minimum inhibitory concentrations (MICs), St. faecalis
Experimental: as §3

[4] = system: Mycobacter fortuitum (NCTC 10394); assay: MIC, Mycobacter fortuitum; type: cell-based; conditions: for MIC: read-out: Minimum inhibitory concentrations (MICs), M. fortuitum
Experimental: as §3

[5] = system: Candida albicans (NCPF3179); assay: MIC, Candida albicans; type: cell-based; conditions: for MIC: read-out: Minimum inhibitory concentrations (MICs), C. albicans
Experimental: as §3

[6] = system: Aspergillus niger (IMI 1745); assay: MIC, Aspergillus niger; type: cell-based; conditions: for MIC: read-out: Minimum inhibitory concentrations (MICs), A. niger
Experimental: as §3

[7] = system: clinical strains of S. aureus in the Scottish Clinical Isolates Collection; assay: MIC against collected clinical strains of S. aureus (BSAC03/04/05 (1)-(10)); type: cell-based, Staphylococcus aureus
Description: as §1, §2
BSAC03/04/05 (1)-(10) refer to collected clinical strains of S. aureus in the Scottish Clinical Isolates Collection.

[8] = system: DNA; conditions: background statement, cited from earlier work; for DNA sequence preference: result in words; for Kd: read-out: dissociation constants (binding to DNA)
[9] = value in parentheses, na = not active

COc1ccc(/C=C/c2ccc(C(=O)Nc3cc(C(=O)Nc4cc(C(=O)NCCN5CCOCC5)n(C)c4)n(C)c3)cn2)cc1 [Example 22]
Minimum inhibitory concentrations (MICs), S aureus 1 [1, 9]: 0.5 µg/mL (≈ 0.817 µM)
MIC ([1]; value outside parentheses): 0.69 µM
Minimum inhibitory concentrations (MICs), S. aureus 2 [2, 9]: 12.5 µg/mL (≈ 20.4 µM)
MIC ([2]; value outside parentheses): 17.2 µM
Minimum inhibitory concentrations (MICs), St. faecalis [3, 9]: 6.3 µg/mL (≈ 10.3 µM)
MIC ([3]; value outside parentheses): 8.6 µM
Minimum inhibitory concentrations (MICs), M. fortuitum [4, 9]: 50 µg/mL (≈ 81.7 µM)
MIC ([4]; value outside parentheses): 69 µM
Minimum inhibitory concentrations (MICs), C. albicans [5, 9]: 25 µg/mL (≈ 40.9 µM)
MIC ([5]; value outside parentheses): 34 µM
Minimum inhibitory concentrations (MICs), A. niger [6, 9]: 50 µg/mL (≈ 81.7 µM)
MIC ([6]; value outside parentheses): 69 µM
Minimum inhibitory concentrations (MICs) ([7]; S. aureus BSAC culture year 2003 number 1): 0.5 µg/mL (≈ 0.817 µM)
Minimum inhibitory concentrations (MICs) ([7]; S. aureus BSAC culture year 2003 number 2): 4 µg/mL (≈ 6.54 µM)
Minimum inhibitory concentrations (MICs) ([7]; S. aureus BSAC culture year 2003 number 3): 0.5 µg/mL (≈ 0.817 µM)
Minimum inhibitory concentrations (MICs) ([7]; S. aureus BSAC culture year 2003 number 4): 0.5 µg/mL (≈ 0.817 µM)
Minimum inhibitory concentrations (MICs) ([7]; S. aureus BSAC culture year 2003 number 5): 0.5 µg/mL (≈ 0.817 µM)
Minimum inhibitory concentrations (MICs) ([7]; S. aureus BSAC culture year 2003 number 6): 1 µg/mL (≈ 1.63 µM)
Minimum inhibitory concentrations (MICs) ([7]; S. aureus BSAC culture year 2003 number 7): 0.5 µg/mL (≈ 0.817 µM)
Minimum inhibitory concentrations (MICs) ([7]; S. aureus BSAC culture year 2003 number 8): 0.5 µg/mL (≈ 0.817 µM)
Minimum inhibitory concentrations (MICs) ([7]; S. aureus BSAC culture year 2003 number 9): 2 µg/mL (≈ 3.27 µM)
Minimum inhibitory concentrations (MICs) ([7]; S. aureus BSAC culture year 2003 number 10): 0.5 µg/mL (≈ 0.817 µM)
Minimum inhibitory concentrations (MICs) ([7]; S. aureus BSAC culture year 2004 number 1): 0.5 µg/mL (≈ 0.817 µM)
Minimum inhibitory concentrations (MICs) ([7]; S. aureus BSAC culture year 2004 number 2): 4 µg/mL (≈ 6.54 µM)
Minimum inhibitory concentrations (MICs) ([7]; S. aureus BSAC culture year 2004 number 3): 2 µg/mL (≈ 3.27 µM)
Minimum inhibitory concentrations (MICs) ([7]; S. aureus BSAC culture year 2004 number 4): 2 µg/mL (≈ 3.27 µM)
Minimum inhibitory concentrations (MICs) ([7]; S. aureus BSAC culture year 2004 number 5): 0.5 µg/mL (≈ 0.817 µM)
Minimum inhibitory concentrations (MICs) ([7]; S. aureus BSAC culture year 2004 number 6): 0.5 µg/mL (≈ 0.817 µM)
Minimum inhibitory concentrations (MICs) ([7]; S. aureus BSAC culture year 2004 number 7): 1 µg/mL (≈ 1.63 µM)
Minimum inhibitory concentrations (MICs) ([7]; S. aureus BSAC culture year 2004 number 8): 1 µg/mL (≈ 1.63 µM)
Minimum inhibitory concentrations (MICs) ([7]; S. aureus BSAC culture year 2004 number 9): 2 µg/mL (≈ 3.27 µM)
Minimum inhibitory concentrations (MICs) ([7]; S. aureus BSAC culture year 2004 number 10): 1 µg/mL (≈ 1.63 µM)
Minimum inhibitory concentrations (MICs) ([7]; S. aureus BSAC culture year 2005 number 1): 2 µg/mL (≈ 3.27 µM)
Minimum inhibitory concentrations (MICs) ([7]; S. aureus BSAC culture year 2005 number 2): 8 µg/mL (≈ 13.1 µM)
Minimum inhibitory concentrations (MICs) ([7]; S. aureus BSAC culture year 2005 number 3): 2 µg/mL (≈ 3.27 µM)
Minimum inhibitory concentrations (MICs) ([7]; S. aureus BSAC culture year 2005 number 4): 0.5 µg/mL (≈ 0.817 µM)
Minimum inhibitory concentrations (MICs) ([7]; S. aureus BSAC culture year 2005 number 5): 4 µg/mL (≈ 6.54 µM)
Minimum inhibitory concentrations (MICs) ([7]; S. aureus BSAC culture year 2005 number 6): 0.5 µg/mL (≈ 0.817 µM)
Minimum inhibitory concentrations (MICs) ([7]; S. aureus BSAC culture year 2005 number 7): 0.5 µg/mL (≈ 0.817 µM)
Minimum inhibitory concentrations (MICs) ([7]; S. aureus BSAC culture year 2005 number 8): 4 µg/mL (≈ 6.54 µM)
Minimum inhibitory concentrations (MICs) ([7]; S. aureus BSAC culture year 2005 number 9): 2 µg/mL (≈ 3.27 µM)
Minimum inhibitory concentrations (MICs) ([7]; S. aureus BSAC culture year 2005 number 10): 1 µg/mL (≈ 1.63 µM)
microbicidal activity against a number of different strains of Staphylococcus aureus ([7]; result in words): displayed microbicidal activity

CSc1ccc(/C=C/c2ccc(C(=O)Nc3cc(C(=O)Nc4cc(C(=O)NCCN5CCOCC5)n(C)c4)n(C)c3)cn2)cc1 [Example 25, N-[1-methyl-5-({[1-methyl-5-({[2-(4-morpholinyl)ethyl]amino}carbonyl)-1H-pyrrol-3-yl]amino}carbonyl)-1H-pyrrol-3-yl]-6-{(E)-2-[4-(methylsulfanyl)-phenyl]ethenyl}nicotinamide]
MIC ([1]; Staphylococcus aureus, value in parentheses, na = not active): 0.5 µg/mL
MIC ([1]; Staphylococcus aureus, value outside parentheses): 0.67 µM
MIC ([2]; Staphylococcus aureus, NCTC6571, value in parentheses, na = not active): 50 µg/mL
MIC ([2]; Staphylococcus aureus, NCTC6571, value outside parentheses): 67 µM
MIC ([3]; Enterococcus faecalis, NCTC775, value in parentheses, na = not active): 25 µg/mL
MIC ([3]; Enterococcus faecalis, NCTC775, value outside parentheses): 34 µM
MIC ([4]; Mycolicibacterium fortuitum, NCTC10394, value in parentheses, na = not active): 100 µg/mL
MIC ([4]; Mycolicibacterium fortuitum, NCTC10394, value outside parentheses): 135 µM
MIC ([5]; Candida albicans, NCPF3179, value in parentheses, na = not active): 50 µg/mL
MIC ([5]; Candida albicans, NCPF3179, value outside parentheses): 67 µM
MIC ([6]; Aspergillus niger, value in parentheses, na = not active): 100 µg/mL
MIC ([6]; Aspergillus niger, value outside parentheses): 135 µM

Cn1cc(NC(=O)c2cc(NC(=O)CN=C(N)N)cn2C)cc1C(=O)NCCC(=N)N [Netropsin, netropsin]
DNA sequence preference [8]: preference for AT-rich regions of DNA
Kd [8]: ~10 µM

Cn1cc(NC(=O)c2cc(NC(=O)c3cc(NC=O)cn3C)cn2C)cc1C(=O)NCCC(=N)N [distamycin]
DNA sequence preference [8]: preference for AT-rich regions of DNA
Kd [8]: ~10 µM

Source: US8012967B2, “Minor groove binders” (University of Strathclyde, priority 2006, dated 2011)
